Assay results as given in patent US20220323391A1, “COMBINATION OF A CHEMOTHERAPEUTIC AGENT AND ALPHA-LACTOGLUBULIN-OLEIC ACID COMPLEX FOR CANCER THERAPY” (HAMLET PHARMA AB, priority 2019, published 2022).
Entries after “also recorded” stand apart in the source; their conditions may differ.

Test system: MB49 mouse bladder carcinoma cells
Test: murine MB49 bladder cancer model, intravesical treatment
Type: in vivo
Conditions: for Tumor growth / tumor progression (bladder weight, bladder size, tumor size) compared to sham treated mice: chemotherapeutic agent alone, 25 μg intravesical, days 3, 5, 7, 9 and 11; for Tumor growth / tumor recurrence at long-term follow up: single agent (alpha1-oleate 1.7 mM, or MMC or Epirubicin 25 μg), after 4 weeks
Method: MB49 (RRID:CVCL_7076) cells were provided by Sara Mangsbo, Uppsala University, Sweden. […] C57BL/6 female mice were bred at the Department of Laboratory Medicine, Lund University and used at ages from 7 to 12 weeks. […] On day 0, the bladder was emptied and preconditioned by intravesical instillation of 100 μl of poly-L-lysine solution (0.1 mg/ml) through a soft polyethylene catheter (Clay Adams) with an outer diameter of 0.61 mm. After 30 minutes, MB49 mouse bladder carcinoma cells (2×10^5 cells in 50 μl media) were instilled. On days 3, 5, 7, 9 and 11, mice were randomly assigned and instilled to the alpha1-oleate (1.7 mM or 8.5 mM), chemotherapeutic drugs (MMC 25 μg, epirubicin 25 μg), combination of alpha1-oleate with chemotherapeutic agent or sham PBS treatment group. The catheter was left in place for about one minute, but as the mice remained under anesthesia, the time to voiding (dwelling time) of the substance was 2-3 hours. Groups of 5-6 mice for each treatment and control were sacrificed at day 12. Follow up groups of 5-8 mice were sacrificed at week 4 and week 8. Bladders were imaged and processed for histology or RNA extraction. Two independent experiments were performed for each condition. All experiments were performed with mycoplasma-free cells.
Bladders were embedded in O.C.T. compound (VWR), and successive 5 μm sections were collected from the center of each bladder and placed on positively-charged microscope slides (Superfrost/Plus; Thermo Fisher Scientific). […] Images was captured using the AX10 microscope (Carl Zeiss). The tumor circumferences were measured for analysis of the tumor area using ImageJ software.
The effects of alpha1-oleate and Mitomycin C were investigated in the murine MB49 bladder cancer model (for study design see FIG. 19A). Bladder cancer was established by intra-vesical instillation of MB49 cells and treatment was initiated on day 3. The treatment group received alpha1-oleate (1.7 mM or 8.5 mM), MMC (0.1 mL, 25 ug/dose) or a combination of alpha1-oleate (1.7 mM or 8.5 mM) with MMC (0.1 mL, 25 ug/dose). Instillations were performed on days 3, 5, 7, 9 and 11 and sham treated mice received PBS. Bladders were harvested at sacrifice on day 12 and tumor development was quantified as bladder weight, bladder size, tumor size and pathology score (FIG. 21c-f).

CO[C@@]12[C@H](COC(N)=O)C3=C(C(=O)C(C)=C(N)C3=O)N1C[C@@H]1N[C@@H]12 [Mitomycin C]
Tumor growth / tumor progression (bladder weight, bladder size, tumor size) compared to sham treated mice (day 12): Tumor progression was delayed
Tumor growth / tumor progression (bladder weight, bladder size, tumor size) compared to sham treated mice (day 12, listed as MMC): reduction in tumor size
Tumor growth / tumor progression (bladder weight, bladder size, tumor size) compared to sham treated mice (day 12, listed as mitomycin): attenuated to a similar extent
Tumor growth / tumor recurrence at long-term follow up (listed as MMC): Evidence of tumor recurrence; also recorded: showed an increase in tumor growth

COc1cccc2c1C(=O)c1c(O)c3c(c(O)c1C2=O)C[C@@](O)(C(=O)CO)C[C@@H]3O[C@H]1C[C@H](N)[C@@H](O)[C@H](C)O1 [Epirubicin]
Therapeutic effect of Epirubicin alone relative to alpha1-oleate (Epirubicin 25 μg vs alpha1-oleate 1.7 mM, day 12, p=0.97): comparable to that of alpha1-oleate
Tumor growth / tumor progression (bladder weight, bladder size, tumor size) compared to sham treated mice (day 12): Tumor progression was delayed; also recorded: reduction in tumor size
Tumor growth / tumor recurrence at long-term follow up: Evidence of tumor recurrence; also recorded: showed an increase in tumor growth
